The source of these data is ChEMBL document CHEMBL1255445, “Evaluation of nucleoside hydrolase inhibitors for treatment of African trypanosomiasis” (Antimicrob Agents Chemother, 2010).

In test [1] the test system is Trypanosoma brucei brucei. The test can be described thus: Antitrypanosomal activity against suramin sensitive Trypanosoma brucei brucei Lister 427 assessed as reduction in parasite growth after 3 days by fluorometrically. To be noted: Lister 427, 72 h. The test is classed as functional, organism-based.
In another test the test system is Leishmania infantum. The test can be described thus: Antileishmanial activity against Leishmania infantum MHOM/MA/67/ITMAP263 intracellular amastigotes assessed as reduction in parasite growth after 3 days by fluorometrically. The test is classed as functional, organism-based.
The nature of test [2]: Inhibition of Trypanosoma vivax Inosine-adenosine-guanosine-nucleoside hydrolase.
The test system of a further test is Trypanosoma cruzi. The test can be described thus: Antitrypanosomal activity against Trypanosoma cruzi Tulahuen CL2 s-galactosidase strain assessed as reduction in parasite growth after 3 days by fluorometrically. The test is classed as functional, organism-based.
In a further test the test system is Plasmodium falciparum. In words: Antiparasitic activity against chloroquine-sensitive Plasmodium falciparum Ghana assessed as reduction in parasite growth after 3 days by fluorimetry. Type of test: functional, organism-based.

Calls of active or inactive are those of the source. How the calls were made is not given here.

Take `Nc1ncccc1CN1C[C@H](O)[C@H](O)[C@H]1CO`: in test [1], the IC50 is above 64 µM. Further, the outcome in the test with Leishmania infantum, in the test on Trypanosoma cruzi and in the test on Plasmodium falciparum was inactive. In addition, the Ki in test [2] is 121 µM.
For the compound `N=C(N)Nc1ccc(CN2C[C@H](O)[C@H](O)[C@H]2CO)cc1`, the IC50 in test [1] was above 64 µM. In addition, the outcome with Leishmania infantum, with Trypanosoma cruzi and in the test with Plasmodium falciparum was inactive. The compound further returned a Ki in test [2] of 7 µM.
Take `Cn1c(CN2C[C@H](O)[C@H](O)[C@H]2CO)nc2ccccc21`: the result in the test with Leishmania infantum, with Trypanosoma cruzi and in the test on Plasmodium falciparum was inactive. This compound also displayed a Ki in test [2] of 2.1 µM.
Take `OC[C@@H]1[C@@H](O)[C@@H](O)CN1Cc1ccncc1`: the outcome in the test on Leishmania infantum, with Trypanosoma cruzi and with Plasmodium falciparum was inactive. The same compound registered a Ki in test [2] of 20 µM.
Regarding `Cc1nc(-c2ccccc2)ncc1CN1C[C@H](O)[C@H](O)[C@H]1CO`, in test [1], the IC50 is above 64 µM. The outcome in the test on Leishmania infantum, in the test on Trypanosoma cruzi and in the test on Plasmodium falciparum was inactive. Also, in test [2], the Ki was 43 µM.
`N=C(N)c1ccc(CN2C[C@H](O)[C@H](O)[C@H]2CO)cc1`: the 50% inhibitory concentration (IC50) in test [1] worked out at 48 µM. Besides, the outcome with Leishmania infantum, with Trypanosoma cruzi and in the test on Plasmodium falciparum was inactive. In test [2], the inhibition constant (Ki) was 6.7 µM.
Turning to `OC[C@@H]1[C@@H](O)[C@@H](O)CN1Cc1ccc(-n2cccc2)cc1`, the IC50 in test [1] amounted to 38 µM. Also, the outcome in the test on Leishmania infantum, in the test on Trypanosoma cruzi and with Plasmodium falciparum was inactive. In test [2], this compound displayed a Ki of 1 µM.
For `OC[C@@H]1[C@@H](O)[C@@H](O)CN1CCc1c[nH]c2ccccc12`, the IC50 in test [1] amounted to 31 µM. Also, the outcome in the test on Leishmania infantum, in the test with Trypanosoma cruzi and in the test with Plasmodium falciparum was inactive. Affinity in test [2] was put at a Ki of 9.5 µM.
Regarding `CN1C(CCNC(=N)N)[C@H](O)[C@H](O)[C@H]1CO` (stereo partly drawn), the outcome with Leishmania infantum, in the test on Trypanosoma cruzi and in the test on Plasmodium falciparum was inactive. The compound further registered an inhibition constant Ki in test [2] of 18 µM.
For the compound `OC[C@@H]1[C@@H](O)[C@@H](O)CN1Cc1ccc(-n2cccn2)cc1`, the IC50 in test [1] was above 64 µM. For the same compound, the result with Leishmania infantum, in the test on Trypanosoma cruzi and in the test on Plasmodium falciparum was inactive. Besides, the Ki in test [2] stood at 1.2 µM.
On to `N=C(N)NCCN1C[C@H](O)[C@H](O)[C@H]1CO`, for which, in test [1], the IC50 is above 64 µM. The result in the test with Leishmania infantum, in the test on Trypanosoma cruzi and in the test on Plasmodium falciparum was inactive. The compound also registered a Ki in test [2] of 286 µM.
Consider `N=C(N)NCCCN1C[C@H](O)[C@H](O)[C@H]1CO`, for which the IC50 in test [1] is above 64 µM. Besides, the result in the test with Leishmania infantum, in the test on Trypanosoma cruzi and in the test on Plasmodium falciparum was inactive. Affinity in test [2] was put at a Ki of 39.9 µM.
Take `O=c1ccc2cccc(CN3C[C@H](O)[C@H](O)[C@H]3CO)c2[nH]1`: the IC50 in test [1] is above 64 µM. In addition, the outcome in the test with Leishmania infantum, with Trypanosoma cruzi and with Plasmodium falciparum was inactive. The same compound showed a Ki in test [2] of 187 µM.
For the compound `OC[C@@H]1[C@@H](O)[C@@H](O)CN1Cc1cnc2ccccc2c1`, in test [1], the 50% inhibitory concentration (IC50) was above 64 µM. The result in the test with Leishmania infantum, with Trypanosoma cruzi and with Plasmodium falciparum was inactive. In test [2], this compound registered a Ki of 20 µM.
In the case of `N#Cc1ccc(CN2C[C@H](O)[C@H](O)[C@H]2CO)cc1`, the result in the test with Leishmania infantum, in the test with Trypanosoma cruzi and in the test with Plasmodium falciparum was inactive. The compound also registered a Ki in test [2] of 26 µM.
For the compound `OC[C@@H]1[C@@H](O)[C@@H](O)CN1Cc1ccc2cccnc2c1`, in test [1], the IC50 was above 64 µM. The outcome with Leishmania infantum, in the test on Trypanosoma cruzi and in the test on Plasmodium falciparum was inactive. Further, the Ki in test [2] was determined as 0.72 µM.
`OC[C@@H]1[C@@H](O)[C@@H](O)CN1Cc1ccc(I)cc1`: the IC50 in test [1] was above 64 µM. The outcome in the test on Leishmania infantum, with Trypanosoma cruzi and with Plasmodium falciparum was inactive. In addition, in test [2], the Ki was 4.3 µM.
For `Nc1ccc2cccc(CN3C[C@H](O)[C@H](O)[C@H]3CO)c2n1`, the IC50 in test [1] is above 64 µM. The outcome in the test on Leishmania infantum, in the test on Trypanosoma cruzi and in the test on Plasmodium falciparum was inactive. This compound gave a Ki in test [2] of 8.4 µM.
As to `COc1ccc2cccc(CN3C[C@H](O)[C@H](O)[C@H]3CO)c2n1`, in test [1], the IC50 is above 64 µM. Also, the outcome with Leishmania infantum, in the test on Trypanosoma cruzi and in the test with Plasmodium falciparum was inactive. In test [2], this compound had a Ki of 1.3 µM.
Take `N#Cc1cccc(CN2C[C@H](O)[C@H](O)[C@H]2CO)c1`: the IC50 in test [1] was above 64 µM. The result in the test on Leishmania infantum, in the test on Trypanosoma cruzi and in the test with Plasmodium falciparum was inactive. This compound gave a Ki in test [2] of 3.8 µM.
Turning to `Cc1cc(Cl)c2cccc(CN3C[C@H](O)[C@H](O)[C@H]3CO)c2n1`, the IC50 in test [1] came out at 22 µM. The result in the test with Leishmania infantum, in the test on Trypanosoma cruzi and in the test with Plasmodium falciparum was inactive. The compound further showed a Ki in test [2] of 0.37 µM.
Consider `Cn1nnc2cc(CN3C[C@H](O)[C@H](O)[C@H]3CO)ccc21`, for which the IC50 in test [1] is above 64 µM. In addition, the outcome with Leishmania infantum, with Trypanosoma cruzi and in the test with Plasmodium falciparum was inactive. This compound returned a Ki in test [2] of 0.72 µM.
Turning to `OC[C@@H]1[C@@H](O)[C@@H](O)CN1Cc1ccnc2ccccc12`, the IC50 in test [1] is above 64 µM. Moreover, the outcome in the test with Leishmania infantum, with Trypanosoma cruzi and with Plasmodium falciparum was inactive. The compound also registered an inhibition constant (Ki) in test [2] of 29 µM.
As for `OC[C@H]1NC[C@H](O)[C@@H]1O` [IMINORIBITOL], the IC50 in test [1] was above 64 µM. For the same compound, the outcome in the test on Leishmania infantum, in the test with Trypanosoma cruzi and with Plasmodium falciparum was inactive. Affinity in test [2] was put at a Ki of 6 µM.
With `Cc1cc(N)c2cccc(CN3C[C@H](O)[C@H](O)[C@H]3CO)c2n1`, the IC50 in test [1] is above 64 µM. Moreover, the result in the test with Leishmania infantum, in the test on Trypanosoma cruzi and in the test with Plasmodium falciparum was inactive. This compound also showed a Ki in test [2] of 71 µM.
As for `OC[C@@H]1[C@@H](O)[C@@H](O)CN1Cc1ccc2cccc(O)c2n1`, the IC50 in test [1] was determined as 49 µM. Moreover, the outcome in the test with Leishmania infantum, with Trypanosoma cruzi and in the test with Plasmodium falciparum was inactive. This compound returned a Ki in test [2] of 1 µM.
In the case of `O=[N+]([O-])c1ccc(CN2C[C@H](O)[C@H](O)[C@H]2CO)cc1`, in test [1], the IC50 is above 64 µM. For the same compound, the outcome in the test on Leishmania infantum, with Trypanosoma cruzi and in the test on Plasmodium falciparum was inactive. The compound further yielded a Ki in test [2] of 7.5 µM.
On to `OC[C@@H]1[C@@H](O)[C@@H](O)CN1Cc1cccc2ccc(Cl)nc12`, for which the IC50 in test [1] worked out at 29 µM. Besides, the result with Leishmania infantum, in the test on Trypanosoma cruzi and with Plasmodium falciparum was inactive. Further, the Ki in test [2] was found to be 0.31 µM.
For the compound `Cc1nn(-c2ccccc2)nc1CN1C[C@H](O)[C@H](O)[C@H]1CO`, the IC50 in test [1] is above 64 µM. Moreover, the result in the test on Leishmania infantum, with Trypanosoma cruzi and with Plasmodium falciparum was inactive. The compound further gave a Ki in test [2] of 0.063 µM.
Take `OC[C@@H]1[C@@H](O)[C@@H](O)CN1Cc1ccc(-n2cncn2)cc1`: the IC50 in test [1] is above 64 µM. Besides, the outcome with Leishmania infantum, in the test on Trypanosoma cruzi and with Plasmodium falciparum was inactive. The compound further showed a Ki in test [2] of 1.2 µM.
As to `COc1ccc(CN2C[C@H](O)[C@H](O)[C@H]2CO)cn1`, the IC50 in test [1] is above 64 µM. The outcome in the test on Leishmania infantum, with Trypanosoma cruzi and with Plasmodium falciparum was inactive. The compound further had a Ki in test [2] of 32 µM.
With `O=[N+]([O-])c1cccc(CN2C[C@H](O)[C@H](O)[C@H]2CO)c1`, the IC50 in test [1] was above 64 µM. In addition, the outcome in the test on Leishmania infantum, with Trypanosoma cruzi and with Plasmodium falciparum was inactive. Also, affinity in test [2] was put at a Ki of 23 µM.
With `OC[C@@H]1[C@@H](O)[C@@H](O)CN1Cc1ccc2ccccc2c1`, in test [1], the IC50 is above 64 µM. Besides, the result in the test on Leishmania infantum, with Trypanosoma cruzi and with Plasmodium falciparum was inactive. This compound also came in with a Ki in test [2] of 2 µM.
In the case of `OC[C@@H]1[C@@H](O)[C@@H](O)CN1Cc1ccccc1`, the result with Leishmania infantum, in the test on Trypanosoma cruzi and with Plasmodium falciparum was inactive. This compound displayed a Ki in test [2] of 58 µM.
As to `OC[C@@H]1[C@@H](O)[C@@H](O)CN1Cc1ccc2ccccc2n1`, the result with Leishmania infantum, in the test on Trypanosoma cruzi and with Plasmodium falciparum was inactive. In test [2], this compound displayed a Ki of 0.18 µM.
Take `OC[C@@H]1[C@@H](O)[C@@H](O)CN1Cc1nccc2ccccc12`: the outcome in the test on Leishmania infantum, in the test with Trypanosoma cruzi and in the test with Plasmodium falciparum was inactive. The same compound gave a Ki in test [2] of 0.75 µM.
